The results in this text go back to ChEMBL document CHEMBL3507680, “University of Dundee, Gates Library screen for HepG2 cell viability”.

This data set can be described thus: Human HepG2 cell viability assay in 384 well format. More on the design: dose 125 nL, time 70.5 hour; cytotoxicity at 70.5 h: concentration not given beside the values. It counts as toxicity, cell-based. The note with it: HepG2 cells, read-out: Inhibition.

For the compound `CSc1ccc(C(=O)C2CCCN(C(=O)Cn3cnnn3)C2)cc1` (configuration not stated), the cytotoxicity at 70.5 h is -6.73%.
As for `O=C(c1cnccn1)N1CCc2onc(Cn3cccn3)c2C1`, the cytotoxicity at 70.5 h is -6.72%.
Take `O=C1NCC2(CCCN(C(=O)c3c[nH]nc3C3CCCCC3)C2)O1` (configuration not stated): the cytotoxicity at 70.5 h is -10.2%.
Turning to `CCN1CC2(CCC1=O)CCN(C(=O)c1ccc(C)cc1O)CC2`, the cytotoxicity at 70.5 h is -14.7%.
Turning to `CN(Cc1cccc(-n2cccn2)c1)c1cc(N2CCCC2)nc(N)n1`, the cytotoxicity at 70.5 h was -16.8%.
Next, `COCCCC1(C(=O)O)CCCN(Cc2ccccc2C)C1` (configuration not stated): -4.89%; `Cn1cc2ncn(C3CCN(c4ccccc4F)CC3)c(=O)c2n1`: -11%; `CCC1(CO)CCCN(C(=O)c2ccc(N3CCN(C)CC3)cc2)C1` (configuration not stated): -4.46%.
For `O=C(NCc1ccc(CO)cc1)C1CCOc2ccccc2C1` (configuration not stated), the cytotoxicity at 70.5 h is 4.54%.
With `COCc1cn(CC2CCN(Cc3nc(C)c[nH]3)CC2)nn1` the figure was -8.76%; with `Cc1ccsc1C(=O)N1C[C@@H](C(=O)O)[C@H](C(C)C)C1`, 0.968%; with `CC(C)C(C(=O)N1CCC2(CC1)CN(C)C(=O)O2)c1ccccc1` (configuration not stated), -8.69%.
With `CNc1nc(C)cc(N2CCC(C(=O)O)(n3ccc(C(C)C)n3)CC2)n1` the figure was -4.47%.
Take `CN1CCN(Cc2nnc(C3CCN(S(C)(=O)=O)CC3)n2C)CC1`: the cytotoxicity at 70.5 h is -20.6%.
For `CC(C)Cc1ncc2c(n1)CN(c1cc(NC3CC3)nc(N)n1)C2`, the cytotoxicity at 70.5 h was 0.238%.
Consider `Cc1cccc(C)c1OC1CN(Cc2cnc(N3CCCC3)nc2)C1`, for which the cytotoxicity at 70.5 h came to 27.2%.
With `CO[C@H]1COC[C@@H]1NC(=O)C1(Oc2ccc(Cl)cc2)CCNCC1`, the cytotoxicity at 70.5 h was -6.36%.
With `COCCN1CCC(C(=O)N(C)Cc2cccc(Cl)c2)C1` (configuration not stated) the figure was 32%; with `O=C(c1ccc2nccn2c1)N(CCO)Cc1ccccc1F`, 3.35%.
With `COCCCN1CCC(CNc2nccc(-c3cnn(C)c3)n2)C1` (configuration not stated), the cytotoxicity at 70.5 h was -6.55%.
Regarding `CCOCc1nc2c(c(N3CC=CC3)n1)CCN(CC1CC1)CC2`, the cytotoxicity at 70.5 h was 9.81%.
For the compound `Cc1ccc2oc(CN3CCn4nc(CCC(=O)O)cc4C3)c(C)c2c1`, the cytotoxicity at 70.5 h is 32%.
Regarding `COc1cccc2c1OCC(C(=O)NCCc1nnc(N)s1)C2` (configuration not stated), the cytotoxicity at 70.5 h was -5.75%.
On to `CCc1cc(N2CCC(N3CCSCC3)CC2)n2nccc2n1`, for which the cytotoxicity at 70.5 h is -7.5%.
For `CCc1ccc(CCNc2ncnc3c2CCN(C(=O)C2CC2)C3)cc1`, the cytotoxicity at 70.5 h turned out to be 7.48%.
`Cc1cnc(C)c(N2C[C@H]3OC(=O)N(C4CCCC4)[C@H]3C2)n1`: the cytotoxicity at 70.5 h was -6.45%.
For `CCCN1CCN(S(=O)(=O)c2ccccc2OC)[C@H]2CS(=O)(=O)C[C@H]21`, the cytotoxicity at 70.5 h was -16.5%.
Next, `CN(C)CCNC(=O)c1ccc(S(=O)(=O)N[C@@H]2CCNC2)cc1`: -13.7%; `CC(C)Cc1nc(CN2CCC3(CCCO3)CCC2=O)no1` (configuration not stated): 0.922%.
Next, `COc1ccccc1OC1CCN(C(=O)c2cccc(O)c2C)CC1`: -4.78%; `CCC(CC)CN(C)Cc1nc(-c2ccccc2NS(C)(=O)=O)oc1C`: -5.33%; `CC(CCn1cccn1)N1CCC(n2cc(C(C)(C)N)nn2)CC1` (configuration not stated): 1.2%.
Next, `COCCN1CCN(c2nc(C3CCCC3)nc3c2cnn3C)CC1`: -16.1%.
For `O=C1NCCCC12CCN(S(=O)(=O)N1CCOCC1)C2` (configuration not stated), the cytotoxicity at 70.5 h was -6.49%.
Take `CN(C)Cc1ccccc1CN(C)C(=O)c1ccoc1`: the cytotoxicity at 70.5 h is -8.04%.
Turning to `Cc1ccc(N2CCN(C3CCc4ccccc4C3)CC2)nn1` (configuration not stated), the cytotoxicity at 70.5 h was -8.25%.
As to `Cc1nn(C)c2ncnc(N3CCCC(OCc4cccnc4)C3)c12` (configuration not stated), the cytotoxicity at 70.5 h is -3.45%.
Take `CCc1cnc(C)nc1NCc1cnc2c(c1)CCC2`: the cytotoxicity at 70.5 h is -9.06%.
Regarding `CC(C)c1cc(NCC2(Cn3cccn3)CC2)n2nccc2n1`, the cytotoxicity at 70.5 h was found to be 5.08%.
As for `CCS(=O)(=O)c1ncc(CN2CCN(C)CC2)n1CCc1ccccc1`, the cytotoxicity at 70.5 h was -3.88%.
Regarding `CCC(c1nc(CC(C)C)nn1-c1ccccn1)n1cccn1` (configuration not stated), the cytotoxicity at 70.5 h was -12.3%.
With `CC(=O)c1cc(CC(=O)NCc2cccc(F)c2F)cs1`, the cytotoxicity at 70.5 h was -8.12%.
Next, `Cc1nc(N(C)C)nc(N(C)Cc2cnccn2)c1C`: -9.41%; `Cn1c(CN2CCCC2)nnc1C1CCCN(C(=O)N2CCOCC2)C1` (configuration not stated): -3.17%; `CCS(=O)(=O)N1CCC(c2nccn2Cc2ccccn2)CC1`: -5.3%.
Consider `CC(C)NS(=O)(=O)c1cc(C(=O)O)cc(-c2ccccc2C#N)c1`, for which the cytotoxicity at 70.5 h amounted to 6.18%.
`Cc1ccc(C)c2c(O)cc(CN[C@H]3CCCCNC3=O)nc12`: the cytotoxicity at 70.5 h is -6.91%.
Take `O=C(NC1CC(=O)N(C2Cc3ccccc3C2)C1)c1ccoc1` (configuration not stated): the cytotoxicity at 70.5 h was -2.92%.
With `CC(C)OC(=O)N1CCCCC1CCn1cccn1` (configuration not stated), the cytotoxicity at 70.5 h is -7.8%.
With `CCc1nc(NC(=O)NCCc2scnc2C)nn1C` the figure was 16.5%; with `Cc1cc(C)n(C2CCN(Cc3c(-c4cc(C)on4)nn(C)c3Cl)C2)n1` (configuration not stated), -6.11%; with `Cc1cccn2c(CC(=O)N3CCC(Oc4ncccn4)CC3)cnc12`, 25.3%.
Regarding `CCc1[nH]c2c(CNc3cncc(C(=O)OC)n3)cc(C)cc2c1C`, the cytotoxicity at 70.5 h was determined as 20.4%.
For the compound `CCc1ncc(C(=O)N2CC(N3CCCCC3)C2)cn1`, the cytotoxicity at 70.5 h came out at 25.6%.
Next, `CC(C)(O)CCc1cccc(C(=O)NCC2COCCO2)c1` (configuration not stated): -1.78%.
In the case of `C=C(C)COc1ccc(C(=O)NCCn2c(C)cc(C)nc2=O)cc1`, the cytotoxicity at 70.5 h was -6.24%.
Take `CCN1CCN(S(=O)(=O)N2CCCC2)[C@H]2CS(=O)(=O)C[C@H]21`: the cytotoxicity at 70.5 h is -3.04%.
For the compound `Cc1cccc2cc(CN3CCC(N4CCOCC4)CC3)c(=O)[nH]c12`, the cytotoxicity at 70.5 h is -5.31%.
With `CCN(CC)C(=O)[C@@H]1C[C@@H](n2cc(-c3ccccn3)nn2)CN1` the figure was -3.65%.
For `O=S(=O)(c1c(Cl)nc2sccn12)N1CCCC2(CCNC2)C1` (configuration not stated), the cytotoxicity at 70.5 h was -7.18%.
For `CCOCC(=O)N1CCC(c2nccn2C)CC1`, the cytotoxicity at 70.5 h turned out to be 2.76%.
In the case of `Cc1cc(C(=O)N2CC[C@H](N3CCOCC3)[C@H](CCCO)C2)c(C)n1C`, the cytotoxicity at 70.5 h is -16.1%.
Take `CC[C@H]1COCCN1C(=O)CCCn1nnc(-c2ccc(F)cc2)n1`: the cytotoxicity at 70.5 h was -1.69%.
Regarding `CC(=O)NC1CCN(c2nc(C)nc3c2c(C)nn3C)C1` (configuration not stated), the cytotoxicity at 70.5 h is 20.8%.
With `CN(CC1Cc2ccccc2CN1C)C(=O)CSc1ccccn1` (configuration not stated) the figure was -15.7%.
With `O=C(O)[C@@H]1CN(C(=O)Cc2ccccc2Cl)C[C@H]1C1CC1` the figure was -15.8%.
Consider `CNCC(=O)NC1CC(C)(C)Cc2nc(C(C)(C)C)ncc21` (configuration not stated), for which the cytotoxicity at 70.5 h was -18.9%.
As to `CCCOCCN1CCc2[nH]c(-c3ccc(OC)cc3)nc2C1`, the cytotoxicity at 70.5 h was -17%.
With `CN(C)S(=O)(=O)N1C[C@@H]2CC[C@H](C1)N(Cc1ccc3[nH]ccc3c1)C2` the figure was -5.61%; with `O=C(C1CNCCN1C(=O)CCOc1ccccc1)N1CCOCC1` (configuration not stated), 4.76%; with `COc1cccc(CN(C)C(C)c2ccco2)c1OCCn1ccnc1` (configuration not stated), -6.31%.
For the compound `COCC(c1ccccn1)N(C)C(=O)c1cc(-c2ccccc2O)n[nH]1` (configuration not stated), the cytotoxicity at 70.5 h is -6.79%.
Regarding `CCc1[nH]c2c(CNC(=O)C3CCCN(C)C3)cc(C)cc2c1C` (configuration not stated), the cytotoxicity at 70.5 h is -4.96%.
`N#Cc1cccc(OC23CCCN(CC2)C3)c1` (configuration not stated): the cytotoxicity at 70.5 h was found to be 13.6%.
In the case of `NCCN1C(=O)CC[C@H]2CN(Cc3ccc4occc4c3)CC[C@H]21`, the cytotoxicity at 70.5 h was -8.13%.
In the case of `Cn1ccnc1SCCNC(=O)c1cc(S(N)(=O)=O)ccc1F`, the cytotoxicity at 70.5 h was -9.32%.
Turning to `COc1ccc(C(=O)N2CCN(C(=O)CCCc3cn[nH]c3)CC2)cc1`, the cytotoxicity at 70.5 h is -5.64%.
Take `Cc1cc(C)n(C2CCN(C(=O)CN3C(=O)CSc4ccccc43)C2)n1` (configuration not stated): the cytotoxicity at 70.5 h was determined as 30.3%.
Consider `CC(=O)NCCNCC1(O)CCCN(CCC2CCCCC2)C1=O` (configuration not stated), for which the cytotoxicity at 70.5 h was -1.79%.
Next, `O=C(O)c1cc(N2C[C@H](NC(=O)C3CCOCC3)[C@@H](C3CC3)C2)ccn1`: -11.7%; `CC(=O)N1CCc2c(nc(N(C)C)nc2NCCC2CCCCO2)C1` (configuration not stated): -5.03%; `Cc1ccc(Cl)c(NC(=O)c2cccc(CN3CC[C@H](O)C3)c2)c1`: -5.5%.
As to `Cc1cc(NCCNc2cccnc2)nc(N)n1`, the cytotoxicity at 70.5 h amounted to 12.3%.
With `CN1CCC(c2n[nH]c(=O)n2-c2cccc(Cl)c2)CC1` the figure was 10.8%.
For `CCc1nc(C)c(CN2CCOC(Cc3cccc4ccccc34)C2)[nH]1` (configuration not stated), the cytotoxicity at 70.5 h was -2.51%.
On to `CC(Cc1cnccn1)NC(=O)c1cccc(CC2CCNCC2)c1` (configuration not stated), for which the cytotoxicity at 70.5 h turned out to be 14%.
`CCCN1CCCC2(CCN(c3nccc(OC)n3)C2)C1=O` (configuration not stated): the cytotoxicity at 70.5 h worked out at 2.5%.
Next, `CC1(C)OC(=O)N(CC(=O)N2CCC(c3ccccc3F)C2)C1=O` (configuration not stated): -3.83%; `CN(Cc1cc2n(n1)CCN(C(=O)[C@H]1CCCO1)C2)Cc1nccs1`: 46.3%.
On to `O=C(NCc1cnn2cccnc12)C1CC(=O)N(Cc2cccnc2)C1` (configuration not stated), for which the cytotoxicity at 70.5 h was found to be 30.6%.
Turning to `Cc1cc(C2CCC2)nc(N2CCC3(CCCN(C)C3=O)C2)n1` (configuration not stated), the cytotoxicity at 70.5 h was -10.6%.
With `Cn1cc(C2=CCN(CCCOc3ccc(C(N)=O)cc3)CC2)cn1`, the cytotoxicity at 70.5 h was -11.2%.
Consider `O=C(CCn1cccc1)N1CCc2[nH]nc(COc3ccccc3)c2C1`, for which the cytotoxicity at 70.5 h is -7.09%.
For the compound `CCn1c(N)nc2cc(C(=O)NCCNc3ncccc3C)cnc21`, the cytotoxicity at 70.5 h was -3.99%.
With `Cc1ccc(CN2CCC[C@@H]3CN(C(=O)c4ccco4)C[C@@H]32)s1` the figure was -11%; with `Cn1cc(CN2CCCC23CCN(C(=O)c2cccs2)CC3)cn1`, -11.6%.
On to `Cc1ccc(CN2Cc3nnn(C)c3C(COCc3ccccc3)C2)o1` (configuration not stated), for which the cytotoxicity at 70.5 h is -8.1%.
